This note sets out measurements from patent US20260253225A1, “OPTICAL SYSTEM AND METHOD FOR MONITORING ABNORMALITY ASSOCIATED PARAMETERS IN CELL-CONTAINING SAMPLES” (priority 2023, published 2026).

Test [1] has as its system primary lymphocytes (benign), CD8 (malignant) and Jurkat (malignant) cells. The experiment in a line: TIRF microscopy of cell membrane fluctuations in a model of the immune synapse. Format: cell-based, human. Conditions: frequency ranges 0-5 Hz and 10-25 Hz, before and after Mibefradil treatment. The text has this:
So far, intracellular fluctuations as captured by the motion of intracellular particles or by the cell boundaries were described. The fluctuations of the cell membrane may have an impact on the formation and function of the immune synapse that forms between T cells and antigen presenting cells (APCs). To study such a possible impact, the inventors measured fluctuations of Jurkat cells at their interface with coverslips coated with αCD3ε antibodies. Such coverslips often serve as a model for the immune synapse, as the cells spread on the coverslips and get robustly activated. The membrane of the cells was stained with an αCD45 primary antibody, labeled with Alexa647 and imaged by time-lapse TIRF microscopy. […] The reflection light was detected using an avalanche photodiode (APD) with a band-pass filter of 650-720 nm. […] Fluorescence intensity of each pixel in each image was normalized by dividing its intensity with the average intensity of that time-dependent image. The temporal fluctuations of the normalized fluorescence intensities were analyzed by DFT for each pixel in a ROI. […] Live cells were measured without and after ATP depletion, while fixed cells served for control. […] The temporal fluctuations of the normalized fluorescence intensities were analyzed via DFT for each pixel in that ROI. […]

In test [2] the test system is surface of aggregation of cells. The test can be described thus: Dynamic reflective laser speckled imaging of cell surface vibrations. Conditions: before and after mibefradil treatment, 0-5 Hz range. Format: cell-based. The text has this:
The inventors have used the above-described imaging system 120 (the experimental set up was built by modifying an inverted fluorescence microscope set up) to acquire the sequence of tissue's images-one such image is shown in FIG. 19A. The image data analysis described above were then used to determine cell vibrations at the surface of aggregation of cells before and after the augmentation of cell membrane vibrations using mibefradil. […] FIGS. 19C and 19D show power fit parameters for the ASD analysis results in the cells (shown in FIG. 19B) before and after mibefradil treatment: parameter b (FIG. 19C) and sum of amplitudes in the 0-5 Hz range (FIG. 19D). Multiple areas of cells (N=14) were measured and compared each before and after mibefradil treatment.

Another test relates to live Jurkat cells. The experiment in a line: DIC microscopy of intracellular particles motion (ASD/PSD and MSD analysis). Type of test: cell-based, human. As to conditions: 10 μM blebbistatin treatment, compared with ATP depletion. Here is the method:
In the following experimental results of the spectral analysis of position fluctuations in time of intracellular particles in Jurkat T lymphocytes, each cell before and after ATP depletion, are presented. […] Depletion of cellular ATP was induced by 30 min incubation with 0.2 μM of the mitochondrial complex 1 inhibitor Rotenone (Sigma-Aldrich, St. Louis, MO, United States) together with 10 mM glycolysis inhibitor 2-deoxy-D-glucose (Sigma-Aldrich, St. Louis, MO, United States). For the visualization and monitoring of intracellular objects, including vesicles, Differential Interference Contrast (DIC) microscopy was employed. Reference is made to FIG. 6a where DIC image of a representative live Jurkat cell is shown. […]
After thresholding the objects, the x and y positions of each identified particle at each point of time (determined by the MultiTracker plug in) were recorded (FIGS. 6c-6e). […] Then, the DFT of these time dependent position changes were calculated for each spatial dimension. The average DFT amplitudes of all moving particles in each cell under each condition were determined for the x and y spatial dimensions. […]
From the position results of the detected intracellular particles, the MSD values for time-lags from 0.3 to 3 s (with a 0.3 s gradual increase) were calculated. The average MSD values were determined for that series of time-lags for each cell before and after ATP depletion. […]

In the case of `COCC(=O)O[C@]1(CCN(C)CCCc2nc3ccccc3[nH]2)CCc2cc(F)ccc2[C@@H]1C(C)C` [Mibefradil], the “cell membrane vibrations (average DFT amplitudes)” value in test [1] is on record as “increases cell membrane vibrations in all cell types”. Also, the “mechanical vibrations of the cells' membrane” value in test [2] is given as “an increase in mechanical vibrations of the cells' membrane”.

Regarding `Cc1ccc2c(c1)C(=O)C1(O)CCN(c3ccccc3)C1=N2` (stereo not drawn) [blebbistatin], the “effects on intracellular motion” value with live Jurkat cells was “effects on intracellular motion of blebbistatin treatment and ATP depletion were similar”.
